Results on 19 molecules are retold here after patent US12595251B2, “Amidines and amidine analogs for the treatment of bacterial infections and potentiation antibiotics” (GEORGIA STATE UNIVERSITY RESEARCH FOUNDATION, INC., priority 2018, dated 2026).

Usually inhibition stands for the percentage by which the read-out fell short of the control. The term MIC denotes the smallest concentration in the dilution series that meets the test's criterion for growth inhibition.

Experiment [1] deals with E. coli. Nature of the experiment: Sensitization of E. coli to erythromycin (sensitization fold from IC90, OD600, 20 h). The settings on record: for SF (E. coli): sensitization fold = IC90 of erythromycin without/with compound, compound concentration not given, T=toxic. Type of experiment: cell-based, Escherichia coli. The procedure:
E. coli bacteria were cultured in Miller's broth at 37° C. overnight prior to treatment. B. subtilis bacteria were cultured in nutrient broth at 37° C. overnight prior to treatment. […] Bacterial density was measured based on OD600.

Experiment [2] relates to wild-type E. coli. The experiment is described as follows: Sensitization of wild-type E. coli toward antibiotics (MIC of antibiotic with/without sensitizer). In kind it is cell-based, Escherichia coli. The settings on record: for Sensitization fold: compound at 5 μg/ml, strain and antibiotic not stated in Table 8. As to the method: Bacteria were cultured with the antibiotic at various concentrations in the presence or absence of bacterial sensitizer for 24 hours at 37° C. Bacterial growth density was determined by measuring OD600 (absorbance measured at a wavelength of 600 nm). […]
The formula for calculating FIC is shown below: […]

For experiment [3], the system named is E. coli. The experiment is described as follows: MIC of compounds against E. coli (OD600, 48 h). In kind it is cell-based. The settings on record: Escherichia coli; for inhibition at 12 µM: compound alone at 12 μM, read-out: Growth inhibition of E. coli at 12 μM; for inhibition at 25 µM: read-out: Growth inhibition of E. coli at 25 μM, compound alone at 25 μM, NA=no activity; for inhibition at 50 µM: read-out: Growth inhibition of E. coli at 50 μM, compound alone at 50 μM, NA=no activity.

Experiment [4] has as its system B. subtilis. The experiment is described as follows: MIC of compounds against B. subtilis (OD600, 48 h). In kind it is cell-based. The settings on record: Bacillus subtilis; for inhibition at 12 µM: compound alone at 12 μM, read-out: Growth inhibition of B. subtilis at 12 μM; for inhibition at 6 µM: read-out: Growth inhibition of B. subtilis at 6 μM, compound alone at 6 μM, NA=no activity; for inhibition at 3 µM: read-out: Growth inhibition of B. subtilis at 3 μM, compound alone at 3 μM, NA=no activity; for MIC: MIC = 90% growth inhibition, compound alone. The procedure: Bacteria were then cultured with varying concentration of the compounds shown below for 48 hours, and then bacterial density was measured based on OD600. The procedure to determine the MIC for each compound against B. subtilis was the same except that the bacteria was cultured in nutrient broth. The MIC of each compound against B. subtilis is shown in Table 2 (NA=no activity, --=not tested).

SMILES strings stand for the structures. Counter-ions that a name gives are not always drawn.

Take `COc1cc(OCc2ccc(C(=N)N)cc2)cc(OCc2ccc(C(=N)N)cc2)c1`: in experiment [1] (erythromycin, compound at 20 μM), the “SF (E. coli) at 20 μM” value was “No effect at 20 μM”.

For the molecule `N=C(N)c1ccc(OCc2cccc(COc3ccc(C(=N)N)cc3F)c2F)c(F)c1` [Compound A-1, 4,4′-(((2-Fluoro-1,3-phenylene)bis(methylene))bis(oxy))bis(3-fluorobenzimidamide) Dihydrochloride], in experiment [2], the Sensitization fold was determined as 8.

Turning to `Cc1cc(COc2ccc(C(=N)NC(C)C)cc2)cc(COc2ccc(C(=N)NC(C)C)cc2)c1` [Compound C-3, 1,3-Bis {(4-isopropylamidino)-phenoxymethyl}-5-methylbenzene dihydrochloride], the “Ability to sensitize Gram-negative bacteria (while preserving ability to sensitize some Gram-positive bacteria)” value in experiment [1] (general statement on amidine substitution or ring restraint) was “greatly decrease, or even abolish”.

On to `CC(C)(C)c1cc(COc2ccc(C(=N)N)cc2F)cc(COc2ccc(C(=N)N)cc2F)c1` [Compound E-15, 1,3-bis {[4-amidino-2-fluoro]-phenoxymethyl]}-5-(tert-butyl)benzene dihydrochloride], for which the Sensitization fold in experiment [2] is 256.

With `Cc1cc(COc2ccc(C(=N)N)cc2F)cc(COc2ccc(C(=N)N)cc2F)c1` [Compound E-18, 1,3-Bis {[4-amidino-2-fluoro)-phenoxymethyl]}-5-methyl-benzene dihydrochloride], the Sensitization fold in experiment [2] turned out to be 32.

In the case of `N=C(N)c1ccc(OCCCCCOc2ccc(C(=N)N)cc2)cc1` [Pentamidine, pentamidine], the “Minimal concentration achieving 10-fold sensitization of E. coli toward erythromycin” value in experiment [2] was determined as 40 μg/ml.

Turning to `N=C(N)c1ccc2nc(-c3ccc(OCC(F)(F)C(F)(F)COc4ccc(-c5nc6ccc(C(=N)N)cc6[nH]5)cc4)cc3)[nH]c2c1` [drawing 706], the “SF (E. coli)” value in experiment [1] (NA=no activity) is on record as below 2.

For `N=C(N)c1ccc(OCc2ccc(-c3ccc(C(=N)N)cc3)cc2)cc1` [drawing 711], the “SF (E. coli)” value in experiment [1] (NA=no activity) is below 2.

`N=C(N)c1ccc(OCc2cccc(COc3ccc(C(=N)N)cc3)c2)cc1` [drawing 712]: in experiment [1] (NA=no activity), the “SF (E. coli)” value is on record as below 2.

With `N=C(N)c1ccc(OCc2cccc(COc3ccc(C(=N)N)cc3F)c2F)c(F)c1` [drawing 713], the “SF (E. coli)” value in experiment [1] (NA=no activity) came out at 6.

Consider `Cc1cc(-c2nc3cc(C(=N)N)ccc3n2C)sc1-c1ccc(OCCCCOc2ccc(C(=N)N)cc2)cc1` [drawing 715], for which, in experiment [1] (NA=no activity), the “SF (E. coli)” value was below 2.

`N=C(N)c1ccc(OCc2cccc(COc3ccc(C(=N)N)cc3)c2F)cc1` [drawing 718]: the “SF (E. coli)” value in experiment [1] (NA=no activity) is listed as below 2.

On to `CC(C)(C)c1cc(COc2ccc(C(=N)N)cc2)cc(COc2ccc(C(=N)N)cc2)c1` [drawing 732], for which, in experiment [1] (erythromycin, compound at 12.5 μM, NA=no activity), the “SF (E. coli) at 12.5 μM” value is reported as 4-fold at 12.5 μM.

Take `CC(C)NC(=N)c1ccc(OCc2cccc(COc3ccc(C(=N)NC(C)C)cc3)c2F)cc1` [drawing 784]: the inhibition at 12 µM in experiment [3] (NA=no activity) turned out to be 60%. In addition, the inhibition at 25 µM in experiment [3] stood at 80%. In experiment [4], the inhibition at 12 µM amounted to 80% and the inhibition at 6 µM is 70%.

As for `CC(C)NC(=N)c1ccc(OCc2cccc(COc3ccc(C(=N)NC(C)C)cc3F)c2F)c(F)c1` [drawing 785], in experiment [3] (NA=no activity), the inhibition at 12 µM was 40%. The inhibition at 25 µM in experiment [3] was 50%. In addition, in experiment [4], the inhibition at 12 µM turned out to be 70% and the inhibition at 6 µM worked out at 60%.

On to `COc1cc(C(=N)N)ccc1OCc1cc(COc2ccc(C(=N)N)cc2OC)cc(C(C)(C)C)c1` [drawing 788], for which the inhibition at 50 µM in experiment [3] is 80%. Moreover, in experiment [4], the inhibition at 3 µM amounted to 30% and the inhibition at 6 µM amounted to 40%.

With `CC(C)(C)c1cc(COc2ccc(C(=N)N)cc2F)cc(COc2ccc(C(=N)N)cc2F)c1` [drawing 789], the MIC in experiment [3] (MIC = 90% growth inhibition, compound alone, NA=no activity) was found to be 50 µM; in experiment [4] it was 50 µM.

As for `Cc1cc(COc2cccc(C(=N)N)c2)cc(COc2cccc(C(=N)N)c2)c1` [drawing 790], the inhibition at 50 µM in experiment [3] came out at 80%. The MIC in experiment [4] came to 50 µM.

As for `Cc1cc(CSc2ccc(C(=N)N)cc2)cc(CSc2ccc(C(=N)N)cc2)c1` [drawing 791], the inhibition at 12 µM in experiment [3] (NA=no activity) came to 15%. In experiment [4], the inhibition at 3 µM stood at 10% and the inhibition at 6 µM was found to be 40%.
